Laboratory results taken from patent publication US10654917B2, “Antibody molecules and peptide delivery systems for use in alzheimer's disease and related disorders” (TECHNOPHAGE, INVESTIGAÇĀO E DESENVOLVIMENTO EM …, priority 2015, dated 2020).
Read-outs that look alike come from different tables or passages of the source. Residues, ends and D or L forms follow the SMILES beside them. *: point of attachment. X1 = Cc1nn(CCN(CCN)CCCC(=O)*)c(C)c1CC(=O)O

Assays:
[1] = Partition coefficient (log Po/w) of radiopeptides; type: physicochemical
Excerpt: Table 7 lists each peptide's name, isoelectric point (PI), charge (number of positive residues), calculated mass (in Da), and ion found; as well as the name, calculated mass, and found ion for the corresponding conjugate; and also retention times in HPLC and the partition coefficient (log Po/w). These values allowed the determination of the hydrophilic nature of peptides, where pepH1 and pepH4 were identified as the most hydrophilic peptides.

[2] = Biodistribution of technetium-labelled peptides; type: in vivo, CD1 mice
Method: To evaluate the capacity to cross the BBB in vivo, the selected peptides, pepH1 and pepH3, were analyzed for biodistribution in CD1 mice. The peptides were labelled with technetium at a final concentration of 8.5×10^−5 M and diluted in PBS. CD1 mice were injected (iv injection, tail vein). The mice were sacrificed by cervical dislocation after 5 and 60 minutes of incubation. The tissues of interest were dissected and washed to remove excess blood, weighed, and measured for radioactivity. Technetium radioactivity of the different peptides was measured for different organs.
Initial results are presented in Table 11, where “% I.A. refers to the “% injected activity”, that is, the amount of radioactivity measured in a given organ compared to the total originally injected.
The biodistribution studies were repeated, using higher doses of each peptide, specifically, a one hundred fold increase, as well as using PepH2 as a negative control, and allowing incubation for 2 minutes and 60 minutes. Tissue biodistribution profile in percentage of injected radiopeptide activity per gram of tissue/organ was measured and results are presented in Table 12.

Cc1nn(CCN(CCN)CCCC(=O)N[C@H](C(=O)N[C@@H](CCC(N)=O)C(=O)N[C@@H](CCC(N)=O)C(=O)N[C@@H](CC(C)C)C(=O)N[C@H](C(=O)N[C@@H](CCCCN)C(=O)N[C@@H](CCCNC(=N)N)C(=O)N[C@@H](Cc2ccccc2)C(=O)N[C@@H](CO)C(=O)N[C@@H](CC(C)C)C(=O)O)[C@@H](C)O)C(C)C)c(C)c1CC(=O)O [^99mTc(CO)3-Pz^1-pepH1, metal not drawn] (X1-VQQLTKRFSL-OH; C-terminus assumed)
log Po/w of radiopeptides [1]: −1.76 ± 0.11 | injected activity in Blood ([2]; 140 μg/mouse, 1 hour): 1.0 ± 0.2 % I.A./g | injected activity in Bone ([2]; 140 μg/mouse, 1 hour): 0.16 ± 0.01 % I.A./g | injected activity in Brain ([2]; 140 μg/mouse, 1 hour): 0.03 ± 0.00 % I.A./g | injected activity in Heart ([2]; 140 μg/mouse, 1 hour): 0.39 ± 0.02 % I.A./g | injected activity in Intestine ([2]; 140 μg/mouse, 1 hour): 13.0 ± 2.0 % I.A./g | injected activity in Kidney ([2]; 140 μg/mouse, 1 hour): 1.6 ± 0.3 % I.A./g | injected activity in Liver ([2]; 140 μg/mouse, 1 hour): 2.4 ± 1.0 % I.A./g | injected activity in Lung ([2]; 140 μg/mouse, 1 hour): 1.4 ± 0.3 % I.A./g | injected activity in Muscle ([2]; 140 μg/mouse, 1 hour): 0.2 ± 0.0 % I.A./g | injected activity in Spleen ([2]; 140 μg/mouse, 1 hour): 0.22 ± 0.01 % I.A./g | injected activity in Stomach ([2]; 140 μg/mouse, 1 hour): 0.31 ± 0.08 % I.A./g | tissue uptake at 2 min ([2]; CD1, blood, iv, 140 ug/mouse, total radioactivity, 140 μg/mouse, 2 min, read-out: injected activity in Blood): 3.1 ± 0.5 %ID/g | tissue uptake at 2 min ([2]; CD1, bone, iv, 140 ug/mouse, total radioactivity, 140 μg/mouse, 2 min, read-out: injected activity in Bone): 0.6 ± 0.2 %ID/g | tissue uptake at 2 min ([2]; CD1, brain, iv, 140 ug/mouse, total radioactivity, 140 μg/mouse, 2 min, read-out: injected activity in Brain): 0.11 ± 0.02 %ID/g | tissue uptake at 2 min ([2]; CD1, heart, iv, 140 ug/mouse, total radioactivity, 140 μg/mouse, 2 min, read-out: injected activity in Heart): 1.1 ± 0.4 %ID/g | dose excreted at 2 min ([2]; CD1, in vivo, iv, 140 ug/mouse, total radioactivity, 140 μg/mouse, 2 min, read-out: Excretion): 17.1 ± 7.9% | dose excreted at 1 h ([2]; CD1, in vivo, iv, 140 ug/mouse, total radioactivity, 140 μg/mouse, 1 hour, read-out: Excretion): 32.7 ± 0.2% | tissue uptake at 2 min ([2]; CD1, intestine, iv, 140 ug/mouse, total radioactivity, 140 μg/mouse, 2 min, read-out: injected activity in Intestine): 3.8 ± 2.3 %ID/g | tissue uptake at 2 min ([2]; CD1, kidney, iv, 140 ug/mouse, total radioactivity, 140 μg/mouse, 2 min, read-out: injected activity in Kidney): 14.6 ± 8.2 %ID/g | tissue uptake at 2 min ([2]; CD1, liver, iv, 140 ug/mouse, total radioactivity, 140 μg/mouse, 2 min, read-out: injected activity in Liver): 7 ± 1.1 %ID/g | tissue uptake at 2 min ([2]; CD1, lung, iv, 140 ug/mouse, total radioactivity, 140 μg/mouse, 2 min, read-out: injected activity in Lung): 2.6 ± 0.5 %ID/g | tissue uptake at 2 min ([2]; CD1, muscle, iv, 140 ug/mouse, total radioactivity, 140 μg/mouse, 2 min, read-out: injected activity in Muscle): 0.6 ± 0.2 %ID/g | tissue uptake at 2 min ([2]; CD1, spleen, iv, 140 ug/mouse, total radioactivity, 140 μg/mouse, 2 min, read-out: injected activity in Spleen): 0.7 ± 0.2 %ID/g | tissue uptake at 2 min ([2]; CD1, stomach, iv, 140 ug/mouse, total radioactivity, 140 μg/mouse, 2 min, read-out: injected activity in Stomach): 0.7 ± 0.4 %ID/g | tissue uptake at 5 min ([2]; mouse, blood, 10 ug, total radioactivity, CD1 mice, iv, 5 min, 10 μg, read-out: injected activity in Blood): 3.1 ± 0.5 %ID/g | tissue uptake at 1 h ([2]; mouse, blood, 10 ug, total radioactivity, CD1 mice, iv, 1 hour, 10 μg, read-out: injected activity in Blood): 1 ± 0.2 %ID/g | tissue uptake at 5 min ([2]; mouse, bone, 10 ug, total radioactivity, CD1 mice, iv, 5 min, 10 μg, read-out: injected activity in Bone): 0.6 ± 0.2 %ID/g | tissue uptake at 1 h ([2]; mouse, bone, 10 ug, total radioactivity, CD1 mice, iv, 1 hour, 10 μg, read-out: injected activity in Bone): 0.16 ± 0.01 %ID/g | tissue uptake at 5 min ([2]; mouse, brain, 10 ug, total radioactivity, CD1 mice, iv, 5 min, 10 μg, read-out: injected activity in Brain): 0.11 ± 0.02 %ID/g | tissue uptake at 1 h ([2]; mouse, brain, 10 ug, total radioactivity, CD1 mice, iv, 1 hour, 10 μg, read-out: injected activity in Brain): 0.03 %ID/g | tissue uptake at 5 min ([2]; mouse, heart, 10 ug, total radioactivity, CD1 mice, iv, 5 min, 10 μg, read-out: injected activity in Heart): 1.1 ± 0.4 %ID/g | tissue uptake at 1 h ([2]; mouse, heart, 10 ug, total radioactivity, CD1 mice, iv, 1 hour, 10 μg, read-out: injected activity in Heart): 0.39 ± 0.02 %ID/g | percent of injected dose excreted at 5 min ([2]; mouse, in vivo, 10 ug, total radioactivity, CD1 mice, iv, 5 min, 10 μg, read-out: Excretion): 17.1 ± 7.9 %ID | percent of injected dose excreted at 1 h ([2]; mouse, in vivo, 10 ug, total radioactivity, CD1 mice, iv, 1 hour, 10 μg, read-out: Excretion): 32.7 ± 0.2 %ID | tissue uptake at 5 min ([2]; mouse, intestine, 10 ug, total radioactivity, CD1 mice, iv, 5 min, 10 μg, read-out: injected activity in Intestine): 3.8 ± 2.3 %ID/g | tissue uptake at 1 h ([2]; mouse, intestine, 10 ug, total radioactivity, CD1 mice, iv, 1 hour, 10 μg, read-out: injected activity in Intestine): 13 ± 2 %ID/g | tissue uptake at 5 min ([2]; mouse, kidney, 10 ug, total radioactivity, CD1 mice, iv, 5 min, 10 μg, read-out: injected activity in Kidney): 14.6 ± 8.2 %ID/g | tissue uptake at 1 h ([2]; mouse, kidney, 10 ug, total radioactivity, CD1 mice, iv, 1 hour, 10 μg, read-out: injected activity in Kidney): 1.6 ± 0.3 %ID/g | tissue uptake at 5 min ([2]; mouse, liver, 10 ug, total radioactivity, CD1 mice, iv, 5 min, 10 μg, read-out: injected activity in Liver): 7 ± 1.1 %ID/g | tissue uptake at 1 h ([2]; mouse, liver, 10 ug, total radioactivity, CD1 mice, iv, 1 hour, 10 μg, read-out: injected activity in Liver): 2.4 ± 1 %ID/g | tissue uptake at 5 min ([2]; mouse, lung, 10 ug, total radioactivity, CD1 mice, iv, 5 min, 10 μg, read-out: injected activity in Lung): 2.6 ± 0.5 %ID/g | tissue uptake at 1 h ([2]; mouse, lung, 10 ug, total radioactivity, CD1 mice, iv, 1 hour, 10 μg, read-out: injected activity in Lung): 1.4 ± 0.3 %ID/g | tissue uptake at 5 min ([2]; mouse, muscle, 10 ug, total radioactivity, CD1 mice, iv, 5 min, 10 μg, read-out: injected activity in Muscle): 0.6 ± 0.2 %ID/g | tissue uptake at 1 h ([2]; mouse, muscle, 10 ug, total radioactivity, CD1 mice, iv, 1 hour, 10 μg, read-out: injected activity in Muscle): 0.2 %ID/g | tissue uptake at 5 min ([2]; mouse, pancreas, 10 ug, total radioactivity, CD1 mice, iv, 5 min, 10 μg, read-out: injected activity in Pancreas): 0.8 ± 0.2 %ID/g | tissue uptake at 1 h ([2]; mouse, pancreas, 10 ug, total radioactivity, CD1 mice, iv, 1 hour, 10 μg, read-out: injected activity in Pancreas): 0.41 ± 0.01 %ID/g | tissue uptake at 5 min ([2]; mouse, spleen, 10 ug, total radioactivity, CD1 mice, iv, 5 min, 10 μg, read-out: injected activity in Spleen): 0.7 ± 0.2 %ID/g | tissue uptake at 1 h ([2]; mouse, spleen, 10 ug, total radioactivity, CD1 mice, iv, 1 hour, 10 μg, read-out: injected activity in Spleen): 0.22 ± 0.01 %ID/g | tissue uptake at 5 min ([2]; mouse, stomach, 10 ug, total radioactivity, CD1 mice, iv, 5 min, 10 μg, read-out: injected activity in Stomach): 0.7 ± 0.4 %ID/g | tissue uptake at 1 h ([2]; mouse, stomach, 10 ug, total radioactivity, CD1 mice, iv, 1 hour, 10 μg, read-out: injected activity in Stomach): 0.31 ± 0.08 %ID/g
